# According to patent publication US20110207751A1, “HETEROCYCLIC COMPOUNDS AND USES AS ANTICANCER AGENTS” (priority 2010, published 2011):
# Columns and labels:
# [1] = system: tubulin (colchicine-binding site); assay: Spin column assay with [^3H]colchicine; conditions: tubulin with [^3H]colchicine and unlabeled competitor, 37° C. 1 h
# Procedure: (§1) Spin column assay. […] The reaction mixtures were incubated at 37° C. for 1 h. The samples were loaded onto Illustra™ MicroSpin™ G-50 columns (GE Healthcare) previously equilibrated with the buffer solution. The columns were placed into 1.5-ml tubes and spun at 750 g for 2 min at room temperature, and radioactivity in the flow-through was analyzed by a scintillation counter.
# [2] = system: KB cells (parental cervical cancer cell line); assay: Inhibition of cell proliferation, xCelligence cell index; format: cell-based; conditions: Homo sapiens, 72 hr post compound treatment, read-out: calculated IC50
# Description: (§2) The biological activity of compounds disclosed herein was monitored and profiled using the Real-Time Cell Electronic Sensing (RT-CES®) system from ACEA Biosciences, Inc. The RT-CES system utilizes cell-substrate impedance technology to monitor cellular behavior inside tissue culture wells in a microtiter plate format. The technology features in the integration of molecular and cell biology with microelectronics and is based on the electronic detection of biological assay process.
# For measurement of cell-substrate or cell-electrode impedance using RT-CES technology, microelectrodes having appropriate geometries are fabricated onto the bottom surfaces of microtiter plate or similar device, facing into the wells. Cells are introduced into the wells of the devices, and make contact to and attach to the electrode surfaces. The presence, absence or change of properties of cells affects the electronic and ionic passage on the electrode sensor surfaces. Measuring the impedance between or among electrodes provides important information about biological status of cells present on the sensors. When there are changes to the biological status of the cells analogue electronic readout signals are measured automatically and in real time, and are converted to digital signals for processing and for analysis. In a RT-CES system, a cell index (arbitrary representation of change in impedance) is automatically derived and provided based on measured electrode impedance values. The cell index obtained for a given well reflects: 1) how many cells are attached to the electrode surfaces in this well; 2) how well cells are attached to the electrode surfaces in this well. […]
# To quantify cell status based on the measured cell-electrode impedance, a parameter termed Cell Index is derived. Cell Index is a quantitative measure of the status of the cells in an electrode-containing well. […]
# The parental cervical cancer cell line, KB cells were first tested. […] The cell status was monitored prior to and after the compound addition using xCelligence system (Roche). […]
# [3] = system: tubulin (vinblastine-binding site); assay: Spin column assay with [^3H]vinblastine; conditions: tubulin with [^3H]vinblastine and unlabeled competitor, 37° C. 1 h
# Procedure: as §1
# [4] = system: KB200 cells over-expressing multiple drug resistant (MDR) gene; assay: Inhibition of cell proliferation, xCelligence cell index; format: cell-based; conditions: Homo sapiens, 72 hr post compound treatment, read-out: calculated IC50
# Description: as §2
# For measurement of cell-substrate or cell-electrode impedance using RT-CES technology, microelectrodes having appropriate geometries are fabricated onto the bottom surfaces of microtiter plate or similar device, facing into the wells. Cells are introduced into the wells of the devices, and make contact to and attach to the electrode surfaces. The presence, absence or change of properties of cells affects the electronic and ionic passage on the electrode sensor surfaces. Measuring the impedance between or among electrodes provides important information about biological status of cells present on the sensors. When there are changes to the biological status of the cells analogue electronic readout signals are measured automatically and in real time, and are converted to digital signals for processing and for analysis. In a RT-CES system, a cell index (arbitrary representation of change in impedance) is automatically derived and provided based on measured electrode impedance values. The cell index obtained for a given well reflects: 1) how many cells are attached to the electrode surfaces in this well; 2) how well cells are attached to the electrode surfaces in this well. Thus, the more the cells of same type in similar physiological conditions attach the electrode surfaces, the larger the cell index. And, the better the cells attach to the electrode surfaces (e.g., the cells spread-out more to have larger contact areas, or the cells attach tighter to electrode surfaces), the larger the cell index.
# To quantify cell status based on the measured cell-electrode impedance, a parameter termed Cell Index is derived. Cell Index is a quantitative measure of the status of the cells in an electrode-containing well. Under the same physiological conditions, more cells attached on to the electrodes leads to larger cell-electrode resistance value, leading to a larger value for Cell Index. Furthermore, for the same number of cells present in the well, a change in the cell status such as morphology will lead to a change in the Cell Index. […]
# The efficacy of these compounds was also tested against KB200 cell over-expressing multiple drug resistant (MDR) gene. […] The cell status was monitored prior to and after the compound addition using xCelligence system (Roche). […]
structure (smiles),measurement,setting,value
"CC[C@]1(O)C[C@@H]2CN(CCc3c([nH]c4ccccc34)[C@@](C(=O)OC)(c3cc4c(cc3OC)N(C)[C@H]3[C@@](O)(C(=O)OC)[C@H](OC(C)=O)[C@]5(CC)C=CCN6CC[C@]43[C@@H]65)C2)C1 [vinblastine, reference compound]",amount of [^3H]colchicine in the flow-through,[1],did not influence the amount of [^3H]colchicine in the flow-through
same,IC50,[2],4.74 nM
same,amount of [^3H]vinblastine in the flow-through,[3],reduced the amount of [^3H]vinblastine found in the flow-through in a concentration-dependent manner
same,IC50,[4],135 nM
